# Results published in ChEMBL document CHEMBL4819090, “Discovery of a new series of PI3K-δ inhibitors from Virtual Screening” (Bioorg Med Chem Lett, 2021).
# Key:
# [1] = target: Phosphatidylinositol 4,5-bisphosphate 3-kinase catalytic subunit gamma isoform (Homo sapiens, UniProt P48736); experiment: Inhibition of PI3Kgamma (unknown origin) by HTRF assay
# [2] = target: Phosphatidylinositol 4,5-bisphosphate 3-kinase catalytic subunit beta isoform (Homo sapiens, UniProt P42338); experiment: Inhibition of PI3Kbeta (unknown origin) by HTRF assay
# [3] = target: Phosphatidylinositol 4,5-bisphosphate 3-kinase catalytic subunit alpha isoform (Homo sapiens, UniProt P42336); experiment: Inhibition of PI3Kalpha (unknown origin) by HTRF assay
# [4] = Volume of distribution in Wistar Han rat at 2 mg/kg, iv; assay type: ADME, organism-based; conditions: in vivo
# [5] = Half life in Wistar Han rat at 2 mg/kg, iv; assay type: ADME, organism-based; conditions: in vivo
# [6] = Clearance in Wistar Han rat at 2 mg/kg, iv; assay type: ADME, organism-based; conditions: in vivo
# Sequence of Phosphatidylinositol 4,5-bisphosphate 3-kinase catalytic subunit gamma isoform (P48736 whole entry, canonical isoform): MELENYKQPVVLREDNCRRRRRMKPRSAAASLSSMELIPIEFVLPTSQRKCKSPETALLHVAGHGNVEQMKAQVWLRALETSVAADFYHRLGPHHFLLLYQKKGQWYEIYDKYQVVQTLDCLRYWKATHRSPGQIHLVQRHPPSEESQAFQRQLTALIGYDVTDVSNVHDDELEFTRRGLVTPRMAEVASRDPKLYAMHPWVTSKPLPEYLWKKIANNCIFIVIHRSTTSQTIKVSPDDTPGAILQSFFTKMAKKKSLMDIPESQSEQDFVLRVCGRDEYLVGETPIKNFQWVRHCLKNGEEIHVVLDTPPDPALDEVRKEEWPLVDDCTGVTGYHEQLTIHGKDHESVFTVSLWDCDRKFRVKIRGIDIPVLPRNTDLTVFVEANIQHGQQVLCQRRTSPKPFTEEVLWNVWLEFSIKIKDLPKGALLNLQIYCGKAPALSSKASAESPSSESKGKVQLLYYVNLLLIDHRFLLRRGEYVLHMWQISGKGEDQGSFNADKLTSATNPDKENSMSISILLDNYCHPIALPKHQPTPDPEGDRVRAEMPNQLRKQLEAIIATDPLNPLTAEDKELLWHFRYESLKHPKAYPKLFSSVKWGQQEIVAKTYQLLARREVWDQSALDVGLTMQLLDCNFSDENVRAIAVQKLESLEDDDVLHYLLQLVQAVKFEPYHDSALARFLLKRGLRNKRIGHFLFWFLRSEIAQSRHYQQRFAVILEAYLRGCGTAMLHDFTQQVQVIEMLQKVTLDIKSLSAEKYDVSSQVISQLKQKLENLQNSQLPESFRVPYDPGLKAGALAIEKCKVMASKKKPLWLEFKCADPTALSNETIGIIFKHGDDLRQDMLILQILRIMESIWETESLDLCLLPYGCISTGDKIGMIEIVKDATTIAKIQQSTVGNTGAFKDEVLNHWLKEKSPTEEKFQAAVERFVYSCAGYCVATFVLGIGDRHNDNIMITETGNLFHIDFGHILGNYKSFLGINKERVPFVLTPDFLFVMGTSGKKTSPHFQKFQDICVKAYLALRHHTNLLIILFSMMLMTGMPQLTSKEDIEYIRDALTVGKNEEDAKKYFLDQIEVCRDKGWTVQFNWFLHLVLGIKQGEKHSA
# Sequence of Phosphatidylinositol 4,5-bisphosphate 3-kinase catalytic subunit alpha isoform (P42336 whole entry, canonical isoform): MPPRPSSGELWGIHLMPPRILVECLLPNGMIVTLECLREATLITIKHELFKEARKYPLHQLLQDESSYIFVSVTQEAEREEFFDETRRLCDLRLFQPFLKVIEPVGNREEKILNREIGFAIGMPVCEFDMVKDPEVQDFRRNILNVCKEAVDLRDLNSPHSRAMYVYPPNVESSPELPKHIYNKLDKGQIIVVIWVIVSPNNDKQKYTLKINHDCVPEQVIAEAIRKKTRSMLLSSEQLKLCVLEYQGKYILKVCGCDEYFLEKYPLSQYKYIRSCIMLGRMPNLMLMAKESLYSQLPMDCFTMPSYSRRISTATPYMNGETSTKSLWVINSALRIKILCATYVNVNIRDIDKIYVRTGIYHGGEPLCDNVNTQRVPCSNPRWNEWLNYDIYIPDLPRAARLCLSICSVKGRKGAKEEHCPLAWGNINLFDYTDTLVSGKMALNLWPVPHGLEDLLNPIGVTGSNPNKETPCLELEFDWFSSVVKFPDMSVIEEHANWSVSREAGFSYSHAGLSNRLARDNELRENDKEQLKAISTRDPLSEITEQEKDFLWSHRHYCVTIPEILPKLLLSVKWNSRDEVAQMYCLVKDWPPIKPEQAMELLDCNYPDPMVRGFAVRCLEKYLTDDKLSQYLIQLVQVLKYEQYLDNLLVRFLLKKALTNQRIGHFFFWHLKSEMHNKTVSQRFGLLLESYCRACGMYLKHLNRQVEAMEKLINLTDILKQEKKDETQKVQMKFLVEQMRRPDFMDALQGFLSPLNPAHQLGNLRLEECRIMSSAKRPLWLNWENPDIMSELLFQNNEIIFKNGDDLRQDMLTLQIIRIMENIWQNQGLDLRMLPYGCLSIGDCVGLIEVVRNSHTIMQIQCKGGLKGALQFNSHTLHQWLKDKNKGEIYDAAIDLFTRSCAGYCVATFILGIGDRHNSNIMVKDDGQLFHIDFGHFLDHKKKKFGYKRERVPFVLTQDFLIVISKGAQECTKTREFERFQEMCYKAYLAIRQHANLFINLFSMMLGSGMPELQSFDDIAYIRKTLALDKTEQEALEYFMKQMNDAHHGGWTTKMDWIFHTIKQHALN
# Sequence of Phosphatidylinositol 4,5-bisphosphate 3-kinase catalytic subunit beta isoform (P42338 whole entry, canonical isoform): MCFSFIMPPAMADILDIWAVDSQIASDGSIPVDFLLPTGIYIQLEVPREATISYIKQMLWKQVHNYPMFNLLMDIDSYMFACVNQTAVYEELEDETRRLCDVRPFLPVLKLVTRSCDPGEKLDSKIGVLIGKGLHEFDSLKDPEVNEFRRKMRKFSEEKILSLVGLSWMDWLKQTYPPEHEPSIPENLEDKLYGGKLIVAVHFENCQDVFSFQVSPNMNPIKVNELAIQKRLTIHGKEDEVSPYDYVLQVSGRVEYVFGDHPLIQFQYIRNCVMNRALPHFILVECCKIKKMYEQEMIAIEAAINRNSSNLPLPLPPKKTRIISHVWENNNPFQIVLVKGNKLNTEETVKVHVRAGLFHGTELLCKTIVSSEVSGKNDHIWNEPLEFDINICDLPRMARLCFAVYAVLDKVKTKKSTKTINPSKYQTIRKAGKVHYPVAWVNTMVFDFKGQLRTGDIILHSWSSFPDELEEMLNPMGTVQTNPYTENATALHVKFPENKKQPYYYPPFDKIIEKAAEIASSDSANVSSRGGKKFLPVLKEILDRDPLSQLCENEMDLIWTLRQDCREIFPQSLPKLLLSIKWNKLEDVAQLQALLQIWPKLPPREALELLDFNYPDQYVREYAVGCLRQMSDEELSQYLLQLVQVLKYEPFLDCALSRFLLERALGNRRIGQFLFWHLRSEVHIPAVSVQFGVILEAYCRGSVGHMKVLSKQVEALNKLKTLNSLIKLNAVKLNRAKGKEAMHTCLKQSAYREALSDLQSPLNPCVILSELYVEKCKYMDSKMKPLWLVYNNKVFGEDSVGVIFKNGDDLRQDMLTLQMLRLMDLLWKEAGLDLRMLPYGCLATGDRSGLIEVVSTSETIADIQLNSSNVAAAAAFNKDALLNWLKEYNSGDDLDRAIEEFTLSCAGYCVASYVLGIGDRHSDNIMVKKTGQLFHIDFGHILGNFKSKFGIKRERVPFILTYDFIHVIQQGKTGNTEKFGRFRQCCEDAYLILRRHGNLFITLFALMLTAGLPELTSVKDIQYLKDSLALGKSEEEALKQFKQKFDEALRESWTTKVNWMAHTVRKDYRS
SMILES,IC50 [1],further results
O=C1NCc2c1cc(O[C@@H]1CCN(C(=O)C3CC3)C1)cc2-c1cncc(O)c1,3.06 µM,–
Cc1ncc(-c2cc(O[C@@H]3CCN(C(=O)C4CC4)C3)cc3c2CNC3=O)cc1NS(C)(=O)=O,3.01 µM,–
O=C1NCc2c1cc(OC1CN(C(=O)C3CC3)C1)cc2-c1cnc(Cl)c(OC(F)F)c1,> 10 µM,–
COc1ccc(-c2cc(O[C@@H]3CCN(C(=O)C4CC4)C3)cc3c2CNC3=O)cn1,4.74 µM,–
O=C1NCc2c1cc(NCCCN1CCOCC1)cc2-c1cccc(O)c1,> 50 µM,IC50 [2]: 5.15 µM; IC50 [3]: 25 µM
CNc1ncc(-c2cc(OC3CN(C(=O)C4C[C@H]4C)C3)cc3c2CNC3=O)cc1C(F)(F)F (stereo partly drawn),> 10 µM,–
O=C1NCc2c1cc(OC1CN(C(=O)C3CC3)C1)cc2-c1ccc(OC(F)F)nc1,> 10 µM,Vd [4]: 1.4 L/kg; half-life [5]: 3.7 h; clearance [6]: 6.3 mL/min/kg
Nc1ncc(-c2cc(OC3CN(C(=O)C4CC4)C3)cc3c2CNC3=O)cc1C(F)(F)F,> 10 µM,–
O=C1NCc2c1cc(O[C@@H]1CCN(C(=O)C3CC3)C1)cc2-c1cnc(F)c(O)c1,1.09 µM,–

# Further lines, with some results ahead:
IC50 [1],SMILES,further results
> 10 µM,O=C1NCc2c1cccc2-c1cc(O)cc(F)c1,–
> 10 µM,Cn1ncc2cc(-c3cc(OC4CN(C(=O)C5CC5)C4)cc4c3CNC4=O)cnc21,–
1.8 µM,O=C1NCc2c1cc(O[C@@H]1CCN(C(=O)C3CC3)C1)cc2-c1cc(O)cc(F)c1,–
2.02 µM,O=C1NCc2c1cc(NCCCc1ccccc1)cc2-c1cc(O)cc(F)c1,–
> 10 µM,O=C1NCc2c1cc(-c1cccc(F)c1)cc2-c1cc(O)cc(F)c1,–
4.33 µM,O=C1NCc2c1cc(NCCCc1ccccc1)cc2-c1cccc(O)c1,–
7.39 µM,C[C@@H]1CN(Cc2nnc(-c3cc4c(c(-c5cc(O)cc(F)c5)c3)CNC4=O)o2)C[C@H](C)O1,–
1.35 µM,O=C1NCc2c1cc(O[C@@H]1CCN(C(=O)C3CC(F)(F)C3)C1)cc2-c1cc(O)cc(F)c1,–
3.13 µM,O=C1NCc2c1cc(O[C@@H]1CCN(C(=O)C3CCOCC3)C1)cc2-c1cc(O)cc(F)c1,–
